Values quoted from earlier work as cited in patent publication US7919468B2, “Compounds useful as modulators of the proteasome activity” (Centre National de la Recherche Scientifique (C.N.R.S.), priority 2005, dated 2011).

Tests used:
Conditions in all cases: cited from earlier work
[1] = target: cytosolic tripeptidyl peptidase II (Homo sapiens, UniProt P29144)
[2] = target: T1, cathepsin A (Homo sapiens, UniProt P10619)
T1 sequence (P10619 29-480): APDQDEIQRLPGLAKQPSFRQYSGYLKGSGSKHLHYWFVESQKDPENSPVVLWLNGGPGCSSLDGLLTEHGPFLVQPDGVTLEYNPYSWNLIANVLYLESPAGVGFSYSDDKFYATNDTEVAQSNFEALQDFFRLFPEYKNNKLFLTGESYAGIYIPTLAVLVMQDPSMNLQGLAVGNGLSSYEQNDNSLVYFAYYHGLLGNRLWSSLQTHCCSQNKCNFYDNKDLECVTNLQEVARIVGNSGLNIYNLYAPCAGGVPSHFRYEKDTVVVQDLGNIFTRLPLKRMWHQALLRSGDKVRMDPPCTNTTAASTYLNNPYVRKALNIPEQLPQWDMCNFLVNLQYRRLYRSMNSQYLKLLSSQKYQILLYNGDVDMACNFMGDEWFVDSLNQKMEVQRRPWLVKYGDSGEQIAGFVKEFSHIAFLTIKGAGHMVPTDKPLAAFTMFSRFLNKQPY

[3] = target: T2, trypsin (Bos taurus, UniProt P00760)
T2 construct: gene PRSS1
T2 sequence (P00760 24-246): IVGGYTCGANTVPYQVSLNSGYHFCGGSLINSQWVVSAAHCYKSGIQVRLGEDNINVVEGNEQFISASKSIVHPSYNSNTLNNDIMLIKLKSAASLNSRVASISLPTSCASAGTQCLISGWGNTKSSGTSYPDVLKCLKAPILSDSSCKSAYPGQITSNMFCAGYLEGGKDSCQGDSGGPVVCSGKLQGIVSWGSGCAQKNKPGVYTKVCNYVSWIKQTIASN

[4] = target: cathepsin-L (Homo sapiens, UniProt P07711)
[5] = target: T3, m-calpain (Homo sapiens, UniProt P17655)
T3 sequence (P17655 1-700): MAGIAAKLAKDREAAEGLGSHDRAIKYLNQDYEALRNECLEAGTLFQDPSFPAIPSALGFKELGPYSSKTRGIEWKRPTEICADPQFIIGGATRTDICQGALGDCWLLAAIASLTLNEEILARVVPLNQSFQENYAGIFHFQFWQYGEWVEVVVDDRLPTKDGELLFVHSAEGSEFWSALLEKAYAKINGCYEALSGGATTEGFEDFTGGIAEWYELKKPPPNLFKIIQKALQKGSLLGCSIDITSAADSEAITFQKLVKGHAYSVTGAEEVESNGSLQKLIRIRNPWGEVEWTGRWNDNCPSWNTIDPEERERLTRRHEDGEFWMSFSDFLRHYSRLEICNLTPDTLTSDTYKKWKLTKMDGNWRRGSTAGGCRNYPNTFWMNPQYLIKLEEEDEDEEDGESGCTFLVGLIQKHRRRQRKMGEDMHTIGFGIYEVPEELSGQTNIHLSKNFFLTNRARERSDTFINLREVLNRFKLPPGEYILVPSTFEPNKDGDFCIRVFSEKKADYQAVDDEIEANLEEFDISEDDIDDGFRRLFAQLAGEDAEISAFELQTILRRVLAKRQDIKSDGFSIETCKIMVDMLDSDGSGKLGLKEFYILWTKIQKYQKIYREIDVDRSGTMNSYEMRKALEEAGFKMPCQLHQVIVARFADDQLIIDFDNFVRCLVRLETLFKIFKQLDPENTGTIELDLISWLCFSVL
T3 sequence (P04632 1-268 partner): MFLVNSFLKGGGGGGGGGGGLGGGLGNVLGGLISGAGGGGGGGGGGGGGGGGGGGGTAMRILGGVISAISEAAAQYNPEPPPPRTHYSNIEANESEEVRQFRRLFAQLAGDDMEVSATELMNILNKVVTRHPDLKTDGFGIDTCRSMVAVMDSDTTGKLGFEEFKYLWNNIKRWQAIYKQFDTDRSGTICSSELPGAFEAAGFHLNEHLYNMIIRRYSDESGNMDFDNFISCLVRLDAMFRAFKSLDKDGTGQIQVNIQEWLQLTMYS

Chain of cathepsin-L (P07711 114-333, species assumed): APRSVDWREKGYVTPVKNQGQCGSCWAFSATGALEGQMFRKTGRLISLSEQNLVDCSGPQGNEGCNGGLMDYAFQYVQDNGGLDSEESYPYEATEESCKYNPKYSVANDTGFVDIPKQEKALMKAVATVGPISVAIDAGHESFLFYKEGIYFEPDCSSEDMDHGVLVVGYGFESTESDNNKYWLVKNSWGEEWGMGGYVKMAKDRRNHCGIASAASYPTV
Chain of cytosolic tripeptidyl peptidase II (P29144 whole entry): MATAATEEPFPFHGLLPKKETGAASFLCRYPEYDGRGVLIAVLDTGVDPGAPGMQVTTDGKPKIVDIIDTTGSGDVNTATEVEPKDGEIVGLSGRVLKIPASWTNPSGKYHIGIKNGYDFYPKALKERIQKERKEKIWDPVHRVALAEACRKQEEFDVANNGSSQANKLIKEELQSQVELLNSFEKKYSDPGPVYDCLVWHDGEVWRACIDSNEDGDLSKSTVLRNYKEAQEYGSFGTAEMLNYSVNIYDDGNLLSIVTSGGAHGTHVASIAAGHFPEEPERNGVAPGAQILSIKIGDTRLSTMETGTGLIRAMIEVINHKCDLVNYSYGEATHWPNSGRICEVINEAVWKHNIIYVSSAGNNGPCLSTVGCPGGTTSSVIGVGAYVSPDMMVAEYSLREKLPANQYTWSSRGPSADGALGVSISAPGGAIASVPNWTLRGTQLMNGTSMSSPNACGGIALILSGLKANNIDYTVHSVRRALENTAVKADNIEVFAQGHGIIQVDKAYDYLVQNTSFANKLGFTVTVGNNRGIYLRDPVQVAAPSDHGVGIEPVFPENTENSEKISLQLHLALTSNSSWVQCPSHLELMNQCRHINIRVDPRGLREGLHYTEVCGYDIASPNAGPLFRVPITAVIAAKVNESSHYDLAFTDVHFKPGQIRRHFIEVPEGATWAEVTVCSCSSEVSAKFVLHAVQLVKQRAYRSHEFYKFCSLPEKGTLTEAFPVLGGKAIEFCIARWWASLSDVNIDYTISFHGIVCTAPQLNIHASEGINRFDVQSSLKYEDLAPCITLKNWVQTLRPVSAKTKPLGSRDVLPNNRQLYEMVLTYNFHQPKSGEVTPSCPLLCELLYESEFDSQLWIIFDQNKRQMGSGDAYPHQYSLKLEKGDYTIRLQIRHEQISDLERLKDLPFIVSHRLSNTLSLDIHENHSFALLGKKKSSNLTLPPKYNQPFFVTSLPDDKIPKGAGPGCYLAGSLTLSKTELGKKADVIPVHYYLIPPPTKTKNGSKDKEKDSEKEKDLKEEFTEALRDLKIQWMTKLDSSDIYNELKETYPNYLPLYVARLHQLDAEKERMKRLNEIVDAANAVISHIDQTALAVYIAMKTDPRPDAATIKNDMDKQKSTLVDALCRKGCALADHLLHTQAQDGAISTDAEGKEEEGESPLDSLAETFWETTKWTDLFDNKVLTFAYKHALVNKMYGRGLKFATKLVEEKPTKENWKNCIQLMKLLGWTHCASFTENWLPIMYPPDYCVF

CC(=O)N[C@@H](CSC(=O)[C@]1([C@@H](O)C(C)C)NC(=O)[C@H](C)[C@@H]1O)C(=O)O [Lactacystin, lactacystin]
inhibition of tripeptidyl peptidase II [1]: inhibited | inhibition of cathepsin A [2]: inhibited

C/C=C\NC(=O)[C@H]1NC(=O)[C@H](CC(N)=O)NC(=O)[C@@H](NC(=O)C(=O)[C@@H](C)CC)Cc2ccc(O)c(c2)-c2cccc3c2NC(=O)[C@@]3(O)[C@@H]1O [TMC-95A]
inhibition of trypsin [3]: no inhibition | inhibition of cathepsin-L [4]: no inhibition | inhibition of m-calpain [5]: no inhibition
